Values of other authors in patent US7780990B2, “Combination therapeutic compositions and method of use” (priority 2005, dated 2010).

Conditions: intravenous infusion 30 g over 30 min, patients with type II diabetes

In the case of `C[N+](C)(C)CC(=O)O` [betaine, glycine betaine], the blood pressure is given as “reduces blood pressure” and the haemodynamic functions is given as “improves haemodynamic functions”.
